According to patent US20100074975A1, “Pharmaceutical composition for the prevention and treatment of liver disease comprising a lonicera caerulea L. Var. Edulis extract” (priority 2005, published 2010):

Tests used:
[1] = system: HepG2 cells; assay: Restoration of growth of cells whose growth is suppressed by ethyl alcohol (SRB method); type: cell-based, human; conditions: HepG2, 1.5% ethyl alcohol for 24 hrs
Description: After the 96-well plate was washed with physiological saline, ethyl alcohol, which was diluted in culture medium in 1.5% (v/v), was added to each well in which HepG2 cells were cultured. Cell damage was induced using ethyl alcohol for 24 hrs. Thereafter, the culture medium containing ethyl alcohol was removed, and the extract from L. caerulea fruits, which was diluted in culture medium in amounts of 0, 0.125, 0.25, 0.5 and 1 mg/ml, was added to each well. […] Cells in each well were then fixed with 70% acetone for 20 min. […] The absorbance of a well treated with ethyl alcohol alone and the absorbance of each well treated with alcohol plus the extract from L. caerulea fruits were compared with that of a control well which was not treated with ethyl alcohol or with the extract from L. caerulea fruits (FIG. 3).
The reduced absorbance increased in a manner that was dependent on the concentrations of the extract from L. caerulea fruits when the extract was administered at up to 0.5 mg/ml to the well treated with ethyl alcohol.
Thus, the degree of restoration of ethyl alcohol-induced cell growth damage by administration of the extract from L. caerulea fruits was calculated according to Equation 1, and the results are given in Table 1, below. […]

[2] = system: HepG2 cells; conditions: 48 hrs
Description: HepG2 cells were seeded in a 96-well plate at a density of 1×10^4 cells per well and incubated in a culture medium supplemented with 10% FBS for 16 hrs. After the 96-well plate was washed with physiological saline, ethyl alcohol, which was diluted in a culture medium in amounts of 0, 0.5, 1.0, 1.5 and 2.0% (v/v), was added to each well in which HepG2 cells were cultured. After incubation for 48 hrs, the cell number in each well was measured using a SRB method.
The culture medium was removed, and the 96-well plate was washed with physiological saline. The cells in each well were then fixed with 70% acetone for 20 min. The fixed cells were dried, stained with an SRB solution for 30 min, and washed with a 1% acetic acid solution five times to eliminate unbound SRB. After the cells were dried again, 10 mM Tris was added to the cells to dissolve cellular proteins and unbound SRB, and absorbance was measured at 562 nm using a spectrophotometer. The results were expressed as a percentage by comparing the absorbance of each well treated with ethyl alcohol with that of a control well not treated with ethyl alcohol (FIG. 2).

## CCO [ethyl alcohol]
[1]
  absorbance reduced in comparison with the well not treated with ethyl alcohol: 22%
[2]; HepG2, ethyl alcohol at concentrations of 1.5% or higher
  effect on cell number: reduced cell number
[2]; HepG2, ethyl alcohol at concentrations of up to 1% (v/v)
  effect on cell growth: stimulate cell growth
